This assay deals with T1, NRH-quinone oxidoreductase 2 (NQO2-F47) (Homo sapiens, UniProt P16083, L47F).
T1 sequence (P16083 1-231 L47F): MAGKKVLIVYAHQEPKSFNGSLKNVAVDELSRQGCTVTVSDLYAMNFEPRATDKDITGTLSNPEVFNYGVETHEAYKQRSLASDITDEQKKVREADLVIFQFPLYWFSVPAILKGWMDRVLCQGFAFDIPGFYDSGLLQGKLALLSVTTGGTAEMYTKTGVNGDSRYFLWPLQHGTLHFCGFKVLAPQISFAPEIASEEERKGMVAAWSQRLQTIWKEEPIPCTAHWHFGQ
Nature of the assay: thermal scanning fluorimetry KD,app (FAD fluorescence). The assay is classed as binding.

Structures are written as SMILES. Where two headings read alike, the source gives them in different places.

Two compounds from article PMC4045209, “The two common polymorphic forms of human NRH-quinone oxidoreductase 2 (NQO2) have different biochemical properties” (Febs Letters, 2014) can be followed below.

In turn, `NC(=O)c1cccnc1` [nicotinamide] had a Kd of 14.4 ± 1.1 mM.

For the compound `O=c1oc2ccccc2c(O)c1Cc1c(O)c2ccccc2oc1=O` [dicoumarol], the Kd (read-out: Kd) came to 0.0337 ± 0.0026 mM.
